Assay results taken from patent US10179161B2, “Compositions and methods for enhancing cardiac function in the neonate” (priority 2016, dated 2019).

Columns and labels:
CyPD = settings: cited from earlier work
[1] = test system: supercomplex assembly (synthasomes); test: synthasome levels by clear native immunoblot in adult heart mitochondria; format: biochemical, mice; settings: 0.5 mM; n=7
Method: Inhibition of CyPD should […] the assembly of the ETC into supercomplexes.
Adult heart mitochondria were used to show decreased supercomplex assembly after PTP opening and increased supercomplex assembly after PTP inhibition or deletion (FIG. 1). A: Mitochondrial permeability transition was induced by 60 μM free Ca^2+ (arrow) and was inhibited by 0.5 mM ADP or 200 nM CsA (top panel). Swelling, indicating PTP opening and a fall in absorbance, is reversible after the addition of 250 μM EGTA (arrow; bottom panel). […] The experimental conditions are summarized below the blot. […] Note that the ATP synthase IGA results a white reaction product, so the shading is correct. (N=4, * p≤0.05, ** p≤0.001 by T-test).

adult animals = settings: 10 mg/Kg IV; cited from earlier work

Compound | K0.5 as a CyPD inhibitor (CyPD) [nM] | potency as a CyPD inhibitor relative to CsA (CyPD) | Ca2+-induced PT decrease of synthasome levels [1] | effects of ischemia reperfusion injury in the heart (adult animals)
CC[C@H]1C[C@H](C)[C@@]2(NC1=O)O[C@@H](C[C@H](O)[C@@H](C)CC/C=C/C=C(\C)[C@@H]1C/C=C/C=C/[C@H](O)[C@H](C)[C@@H](O)[C@@H](CCC(C)=O)C(=O)N[C@@H](C(C)C)C(=O)N[C@@H](Cc3cccc(O)c3)C(=O)N3CCC[C@H](N3)C(=O)O1)[C@H](C)[C@H](O)[C@@H]2C [Sangliferin A, Sanglifehrin A] | 2 | more potent |  | 
Nc1ncnc2c1ncn2[C@@H]1O[C@H](COP(=O)(O)OP(=O)(O)O)[C@@H](O)[C@H]1O [ADP] |  |  | inhibited | 
Alisporivir |  | about as potent as CsA |  | ameliorate
